Literature values in patent US10576045B2 (priority 2012, dated 2020).

Columns and labels:
[1] = obese patients with BED; 8 mg/day of reboxetine for 12 days
[2] = tested on: serotonin reuptake
[3] = reboxetine 4 mg/day coadministered with olanzapine
[4] = tested on: monoamine oxidase (MAO)
[5] = tested on: anticholinergic binding; settings: different animal models
[6] = tested on: dopamine reuptake
[7] = 60 mg/day

## CCOc1ccccc1O[C@H](c1ccccc1)[C@H]1CNCCO1 (relative stereo) [reboxetine, (R*,R*)-2-[(2-ethoxyphenoxy)-phenyl-methyl]morpholine]
[1]
  binge eating behavior: reduced binge eating behavior
[2]
  serotonin reuptake inhibitory activity: only marginal
[3]
  weight-gain associated with olanzapine administration: reduced the weight-gain
[4]
  monoamine oxidase (MAO) inhibitory activity: substantially devoid
[5]
  anticholinergic binding activity: no anticholinergic binding activity
[6]
  dopamine reuptake inhibitory activity: no

## CNCCC(Oc1ccc(C(F)(F)F)cc1)c1ccccc1 (racemic) [fluoxetine, (+−)-N-methyl-3-(p-trifluoromethylphenoxy)-3-phenylpropyl-amine]
[7]; end of the study, week 52
  difference between treatment and placebo groups: no difference
[7]; following 28 weeks of treatment
  weight loss compared to placebo: statistically significant weight loss
